Target: unphosphorylated-BTK kinase domain (UP-BTK), GST-tagged human BTK (389-659aa) (Homo sapiens (Human), UniProt Q06187)
Assay: BTK kinase Lanthascreen binding assay
Details: unphosphorylated-BTK kinase domain, 50 nM Tracer 236, 60 minutes, pIC50 = negative log of the IC50 in molar
How it was run: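 Measures how well compounds compete with a fluorescence-labelled tracer for binding to BTK in its unphosphorylated state. IC50 values were fitted and expressed as pIC50 (negative logarithm of the molar IC50).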

Sequence of unphosphorylated-BTK kinase domain (UP-BTK), GST-tagged human BTK (389-659aa) (Q06187 389-659): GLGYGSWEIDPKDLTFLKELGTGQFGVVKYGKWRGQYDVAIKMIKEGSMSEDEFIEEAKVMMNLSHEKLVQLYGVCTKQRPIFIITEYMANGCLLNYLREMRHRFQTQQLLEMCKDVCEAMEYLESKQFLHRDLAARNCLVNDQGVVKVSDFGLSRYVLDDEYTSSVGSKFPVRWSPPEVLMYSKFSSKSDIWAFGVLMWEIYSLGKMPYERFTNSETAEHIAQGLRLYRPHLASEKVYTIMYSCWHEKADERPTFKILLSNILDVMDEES

Row | SMILES | BTK_I_binding pIC50 | IC50 (read-out: BTK_I_binding pIC50 (converted)) [nM]
1 | C=CC(=O)N1CC[C@@H](NC(=O)c2sc3nccc4c3c2NC(=O)N4c2ccccc2)C1 [Example 337, (R)—N-(1-Acryloylpyrrolidin-3-yl)-4-oxo-5-phenyl-4,5-dihydro-3H-1-thia-3,5,8-triazaacenaphthylene-2-carboxamide] | 5.4 | 
2 | Cc1cc(Oc2ccccc2)ccc1N1C(=O)Nc2c(C(=O)N(C)[C@@H]3CCN(C)C3)sc3nccc1c23 [Example 338, (R)—N-Methyl-5-(2-methyl-4-phenoxyphenyl)-N-(1-methylpyrrolidin-3-yl)-4-oxo-4,5-dihydro-3H-1-thia-3,5,8-triazaacenaphthylene-2-carboxamide] | 5.4 | 
3 | COc1ccc(N2C(=O)Nc3c(C(=O)N[C@@H]4CCCN(C)C4)sc4nccc2c34)c(C)c1 [Example 340, (R)-5-(4-Methoxy-2-methylphenyl)-N-(1-methylpiperidin-3-yl)-4-oxo-4,5-dihydro-3H-1-thia-3,5,8-triazaacenaphthylene-2-carboxamide] | 5.3 | 
4 | O=C(N[C@@H]1CCCNC1)c1sc2nccc3c2c1NC(=O)N3c1ccc(C(F)(F)F)cc1 [Example 341, (R)-4-Oxo-N-(piperidin-3-yl)-5-(4-(trifluoromethyl)phenyl)-4,5-dihydro-3H-1-thia-3,5,8-triazaacenaphthylene-2-carboxamide] | 5.2 | 
5 | COc1ccc(N2C(=O)Nc3c(C(=O)N[C@@H]4CCCNC4)sc4nccc2c34)cc1 [Example 342, (R)-5-(4-Methoxyphenyl)-4-oxo-N-(piperidin-3-yl)-4,5-dihydro-3H-1-thia-3,5,8-triazaacenaphthylene-2-carboxamide] | 5.2 | 
6 | O=C(N[C@@H]1CCCNC1)c1sc2nccc3c2c1NC(=O)N3c1ccc(-c2ccccc2)cc1 [Example 344, (R)-5-([1,1′-Biphenyl]-4-yl)-4-oxo-N-(piperidin-3-yl)-4,5-dihydro-3H-1-thia-3,5,8-triazaacenaphthylene-2-carboxamide] | 5.0 | 
7 | O=C(N[C@@H]1CCCNC1)c1sc2nccc3c2c1NC(=O)N3c1ccc(Cl)c(Cl)c1 [Example 346, (R)-5-(3,4-Dichlorophenyl)-4-oxo-N-(piperidin-3-yl)-4,5-dihydro-3H-1-thia-3,5,8-triazaacenaphthylene-2-carboxamide] | <5 | 
8 | O=C(N[C@@H]1CCCNC1)c1sc2nccc3c2c1NC(=O)N3c1cccc(C(F)(F)F)c1 [Example 347, (R)-4-Oxo-N-(piperidin-3-yl)-5-(3-(trifluoromethyl)phenyl)-4,5-dihydro-3H-1-thia-3,5,8-triazaacenaphthylene-2-carboxamide] | <5 | 
9 | O=C(N[C@@H]1CCCNC1)c1sc2nccc3c2c1NC(=O)N3c1ccccc1 [Example 348, (R)-4-Oxo-5-phenyl-N-(piperidin-3-yl)-4,5-dihydro-3H-1-thia-3,5,8-triazaacenaphthylene-2-carboxamide] | <5 | 
10 | CN1CCC[C@@H](NC(=O)c2sc3nccc4c3c2NC(=O)N4c2ccc(Oc3ccccc3)cc2C(F)(F)F)C1 [Example 349, (R)—N-(1-Methylpiperidin-3-yl)-4-oxo-5-(4-phenoxy-2-(trifluoromethyl)phenyl)-4,5-dihydro-3H-1-thia-3,5,8-triazaacenaphthylene-2-carboxamide] | <5 | 
11 | Cc1cc(Oc2ccccc2)nnc1N1C(=O)Nc2c(C(=O)N[C@@H]3CCCN(C)C3)sc3nccc1c23 [Example 350, (R)-5-(4-Methyl-6-phenoxypyridazin-3-yl)-N-(1-methylpiperidin-3-yl)-4-oxo-4,5-dihydro-3H-1-thia-3,5,8-triazaacenaphthylene-2-carboxamide] | <5 | 
12 | C=CC(=O)N1CC[C@@H](NC(=O)c2sc3nccc4c3c2NC(=O)N4c2nnc(Oc3ccccc3)cc2C)C1 [Example 351, (R)—N-(1-Acryloylpyrrolidin-3-yl)-5-(4-methyl-6-phenoxypyridazin-3-yl)-4-oxo-4,5-dihydro-3H-1-thia-3,5,8-triazaacenaphthylene-2-carboxamide] | <5 | 
13 | Cc1ccccc1N1C(=O)Nc2c(C(=O)N[C@@H]3CCCN(C)C3)sc3nccc1c23 [Example 352, (R)—N-(1-Methylpiperidin-3-yl)-4-oxo-5-(o-tolyl)-4,5-dihydro-3H-1-thia-3,5,8-triazaacenaphthylene-2-carboxamide] | <5 | 
14 | Cc1cc(Oc2ccncc2)ccc1N1C(=O)Nc2c(C(=O)N[C@@H]3CCCN(C)C3)sc3nccc1c23 [Example 354, (R)-5-(2-Methyl-4-(pyridin-4-yloxy)phenyl)-N-(1-methylpiperidin-3-yl)-4-oxo-4,5-dihydro-3H-1-thia-3,5,8-triazaacenaphthylene-2-carboxamide] | <5 | 
15 | CN(C)c1cccc(N2C(=O)Nc3c(C(=O)N[C@@H]4CCCNC4)sc4nccc2c34)c1 [Example 356, (R)-5-(3-(Dimethylamino)phenyl)-4-oxo-N-(piperidin-3-yl)-4,5-dihydro-3H-1-thia-3,5,8-triazaacenaphthylene-2-carboxamide] | <5 | 
16 | C=CC(=O)N1CCC[C@@H](NC(=O)c2sc3nccc4c3c2NC(=O)N4C(C)C)C1 [Example 357, (R)—N-(1-Acryloylpiperidin-3-yl)-5-isopropyl-4-oxo-4,5-dihydro-3H-1-thia-3,5,8-triazaacenaphthylene-2-carboxamide] | 5.1 | 
17 | C=CC(=O)N1CCC[C@@H](NC(=O)c2sc3nccc4c3c2NC(=O)N4c2cccnc2C)C1 [Example 358, (R)—N-(1-Acryloylpiperidin-3-yl)-5-(2-methylpyridin-3-yl)-4-oxo-4,5-dihydro-3H-1-thia-3,5,8-triazaacenaphthylene-2-carboxamide] | 5.2 | 
18 | Cc1ncccc1N1C(=O)Nc2c(C(=O)N[C@@H]3CCCNC3)sc3nccc1c23 [Example 359, (R)-5-(2-Methylpyridin-3-yl)-4-oxo-N-(piperidin-3-yl)-4,5-dihydro-3H-1-thia-3,5,8-triazaacenaphthylene-2-carboxamide] | <5 | 
19 | C=CC(=O)N1CCC[C@@H](NC(=O)c2sc3nccc4c3c2NC(=O)N4c2ccc(Cl)c(Cl)c2)C1 [Example 360, (R)—N-(1-Acryloylpiperidin-3-yl)-5-(3,4-dichlorophenyl)-4-oxo-4,5-dihydro-3H-1-thia-3,5,8-triazaacenaphthylene-2-carboxamide] | 6.7 | 
20 | CC(C)N1C(=O)Nc2c(C(=O)N[C@@H]3CCCNC3)sc3nccc1c23 [Example 361, (R)-5-Isopropyl-4-oxo-N-(piperidin-3-yl)-4,5-dihydro-3H-1-thia-3,5,8-triazaacenaphthylene-2-carboxamide] | <5 | 
21 | C=CC(=O)N1CCC[C@@H](NC(=O)c2sc3nccc4c3c2NC(=O)N4c2ccc(Cl)c(C(F)(F)F)c2)C1 [Example 362, (R)—N-(1-Acryloylpiperidin-3-yl)-5-(4-chloro-3-(trifluoromethyl)phenyl)-4-oxo-4,5-dihydro-3H-1-thia-3,5,8-triazaacenaphthylene-2-carboxamide] | 5.4 | 
22 | COC(C)(C)CC(=O)N1CCC[C@@H](NC(=O)c2sc3nccc4c3c2NC(=O)N4c2ccc(Oc3ccccc3)cc2C)C1 [Example 363, (R)—N-(1-(3-Methoxy-3-methylbutanoyl)piperidin-3-yl)-5-(2-methyl-4-phenoxyphenyl)-4-oxo-4,5-dihydro-3H-1-thia-3,5,8-triazaacenaphthylene-2-carboxamide] | 6.9 | 
23 | CC(=O)N/C=C\C(=O)N1CCC[C@@H](NC(=O)c2sc3nccc4c3c2NC(=O)N4c2ccc(Oc3ccccc3)cc2C)C1 [Example 364, (R,Z)—N-(1-(3-Acetamidoacryloyl)piperidin-3-yl)-5-(2-methyl-4-phenoxyphenyl)-4-oxo-4,5-dihydro-3H-1-thia-3,5,8-triazaacenaphthylene-2-carboxamide] | 6.8 | 
24 | Cc1cc(Oc2ccccc2)ccc1N1C(=O)Nc2c(C(=O)N[C@@H]3CCN(C(=O)/C=C/CN(C)C)C3)sc3nccc1c23 [Example 368, (R,E)-N-(1-(4-(Dimethylamino)but-2-enoyl)pyrrolidin-3-yl)-5-(2-methyl-4-phenoxyphenyl)-4-oxo-4,5-dihydro-3H-1-thia-3,5,8-triazaacenaphthylene-2-carboxamide] | 7.6 | 
25 | C=CS(=O)(=O)N1CC[C@@H](NC(=O)c2sc3nccc4c3c2NC(=O)N4c2ccc(Oc3ccccc3)cc2C)C1 [Example 369, (R)-5-(2-Methyl-4-phenoxyphenyl)-4-oxo-N-(1-(vinylsulfonyl)pyrrolidin-3-yl)-4,5-dihydro-3H-1-thia-3,5,8-triazaacenaphthylene-2-carboxamide] | 7.8 | 
26 | [2H]C([2H])([2H])N1CCC[C@@H](NC(=O)c2sc3nccc4c3c2NC(=O)N4c2ccc(Oc3ccccc3)cc2C)C1 [Example 370, (R)-5-(2-Methyl-4-phenoxyphenyl)-N-(1-trideuteriomethylpiperidin-3-yl)-4-oxo-4,5-dihydro-3H-1-thia-3,5,8-triazaacenaphthylene-2-carboxamide] |  | 100
27 | Cc1cc(Oc2ccccc2)ccc1N1C(=O)Nc2c(C(=O)N[C@@H]3CCCN(C(=O)/C=C/CN(C)C)C3)sc3nccc1c23 [Example 371, (R,E)-N-(1-(4-(Dimethylamino)but-2-enoyl)piperidin-3-yl)-5-(2-methyl-4-phenoxyphenyl)-4-oxo-4,5-dihydro-3H-1-thia-3,5,8-triazaacenaphthylene-2-carboxamide] | 7.0 | 

Reference: patent US10800792B2, “Inhibitors of Bruton's tyrosine kinase and method of their use” (JANSSEN PHARMACEUTICA NV, priority 2015, dated 2020)
